In PMC9501810, “Bitter Peptides YFYPEL, [sequence], and [sequence], Released during Gastric Digestion of Casein, Stimulate Mechanisms of Gastric Acid Secretion via Bitter Taste Receptors TAS2R16 and TAS2R38” (Journal of Agricultural and Food Chemistry, 2022):

Columns and labels:
HGT-1 cells = assay: Proton secretion assay (intracellular proton index IPX, SNARF-1-AM); type: cell-based, human; conditions: for ΔIPX (change in intracellular proton index vs untreated cells): 10 min incubation in KRHB, mean ± SEM, n = 4–8
Procedure: The measurement of proton secretion from HGT-1 cells represents a well-established model for the identification of bitter compounds. By affecting extraoral bitter taste receptors with bitter compounds, a modulatory effect on proton secretion can be measured. For this purpose, cells were washed with KRHB and incubated with 3 μM of the intracellular pH indicator 1,5 carboxy-seminaphto-rhodafluor acetoxymethyl ester (SNARF-1-AM) under standard conditions. After 30 min, the cells were washed again with KRHB and then incubated with casein (0.01–10 μM equimolar related to the relevant forms αS1- and β-casein), hydrolysate (0.01–10 μM), or the peptides (0.01–200 μM). […] All substances were dissolved and diluted in KRHB. 1 mM histamine was used as a positive control. Measurements were performed using FlexStation 3 (Molecular Devices, USA). The excitation wavelength was 488 nm, and the emission wavelengths were 580 and 640 nm. For calibration (pH range 7.0–8.0), the intracellular and extracellular pH was adjusted with 2 μM nigericin in potassium buffer (20 mM NaCl, 110 mM KCl, 1 mM CaCl2, 1 mM MgSO4, 18 mM D-glucose, and 20 mM HEPES). The intracellular proton index (IPX) was calculated as the log2 value of the 580/640 ratio and compared with cells without treatment. Negative values represent increased secretion of protons and therefore stimulation of mechanisms regulating gastric acid secretion in HGT-1 cells. In contrast, positive values represent an inhibition of secretion compared to the untreated control.

pepsin = assay: In vitro gastric digestion of casein with targeted UHPLC-MS/MS-MRM quantitation of peptides; type: in vitro ADME, porcine; conditions: 37 °C, n = 4; for degradation of the peptide during further in vitro gastric digestion: SGF pH 3 with pepsin, up to 6 h
Procedure: The in vitro digestion was based on the Nature protocol established by Brodkorb et al.([30]) For this, simulated salivary fluid (SSF, containing 15.1 mM KCl, 3.7 mM KH2PO4, 13.6 mM NaHCO3, 0.15 mM MgCl2(H2O)6, 0.06 mM (NH4)2CO3, 1.1 mM HCl, and 1.5 mM CaCl2(H2O)2) and simulated gastric fluid (SGF, containing 6.9 mM KCl, 0.9 mM KH2PO4, 25.0 mM NaHCO3, 47.2 mM NaCl, 0.12 mM MgCl2(H2O)6, 0.5 mM (NH4)2CO3, 15.6 mM HCl, and 0.15 mM CaCl2(H2O)2) were prepared. A total amount of 100 mg casein was suspended in 3 mL of SSF and incubated for 5 min at 37 °C in the tube rotator. After taking a sample (500 μL, t = 0 h), 2 mL of SGF was added and the pH was adjusted to 3 with 100 μL of HCl (1 M). After addition of 125 μL of pepsin solution (80,000 U/mL in 10 mM HCl), 275 μL of H2O was added to fill up to 5 mL. This was followed by further incubation at 37 °C in a tube rotator for 6 h. 500 μL of samples was taken at 0.25, 0.5, 0.75, 1, 2, 3, 4, 5, and 6 h, respectively. The samples were frozen in liquid nitrogen and stored at −80 °C until further analysis. For MS experiments, all samples were diluted 1:1 with 10% MeCN.
All targeted proteomics LC–MS/MS measurements were performed using a Sciex ExionLC AC (Sciex, Darmstadt, Germany) coupled to a 6500+ QTrap LC–MS/MS system (Sciex, Darmstadt, Germany) operating in the positive electrospray ionization mode. Data acquisition and instrumentation control were performed with AnalystTF software (v 1.7.1; Sciex, Darmstadt, Germany). Separation was performed using a 100 × 2.1 mm, 1.7 μm, Kinetex C18 column (Phenomenex, Aschaffenburg, Germany) with a guard column of the same type with 0.1% aqueous formic acid and acetonitrile containing 0.1% formic acid at a flow rate of 0.25 mL/min. The gradient was based on the following scheme: 0 min, 15% B; 7 min, 40% B; 7.5 min, 98% B; 10.5 min, 98% B; 10.8 min, 15% B; and 15 min, 15% B. The column oven temperature was set at 40 °C, and the injection volume was 1 μL per sample. For MS/MS measurements, the same parameters were used for all samples (ion spray voltage […], source temperature 450 °C, nebulizing gas 60 psi, and heating gas 30 psi). Nitrogen was set to 35 psi and served as a curtain gas to effectively dissolve the ions. To optimize the parameters DP, CE, and collision cell exit potential for each peptide and transition (Supporting Information Table-SI 2), standard solutions of the five synthesized peptides were injected directly into the MS ion source. Ionization parameters were optimized in positive ESI mode using AnalystTF software (v 1.7.1; Sciex, Darmstadt, Germany). For the preparation of the calibration curves, five peptides were dissolved individually in D2O (600 μL) and the concentration of the stock solutions was determined by qNMR.[35] For each peptide, seven calibration solutions (0.5, 1, 5, 10, 50, 100, and 200 μM) were diluted in 5% MeCN from these stock solutions. The data were analyzed using MultiQuant software (v 3.0.3; Sciex, Darmstadt, Germany).

Caco-2 cell monolayers = conditions: Caco-2; cited from earlier work
Excerpt: In addition, transport through Caco-2 cell monolayers was ...

[1] = Solubility of casein in the proton secretion assay; type: physicochemical; conditions: casein in KRHB, concentrations above 10 µM could not be investigated

Row | Substance | concentrations at which a significant ΔIPX was found (HGT-1 cells; tested 0.01–200 µM, 10 min) | highest concentration released during in vitro digestion (pepsin; 100 mg casein, SSF then SGF pH 3 with pepsin, 0–6 h, mean) | degradation of the peptide during further in vitro gastric digestion (pepsin) | transport through Caco-2 cell monolayers (Caco-2 cell monolayers) | ΔIPX (change in intracellular proton index vs untreated cells) (HGT-1 cells; 0.1 µM, IPX = log2 of 580/640 ratio, negative = stimulated proton secretion) | ΔIPX (change in intracellular proton index vs untreated cells) (HGT-1 cells; 5 µM, positive = inhibited proton secretion) | ΔIPX (change in intracellular proton index vs untreated cells) (HGT-1 cells; 10 µM, negative = stimulated, positive = inhibited proton secretion) | change in mean IPX (HGT-1 cells; casein concentrations below 5 µM (0.01–<5 µM, equimolar related to αS1- and β-casein)) | solubility [1]
1 | PVVVPPFLQPEVM | at 1 and 10 μM only | up to 148.7 μM | not further degraded | transport through Caco-2 cell monolayers was observed | – | – | – | – | –
2 | YYVPLGTQ [bitter casein peptide αS1-CN165–172] | – | – | no noticeable degradation | – | −0.166 ± 0.017 | – | – | – | –
3 | casein | – | – | – | – | – | +0.212 ± 0.029 | +0.441 ± 0.037 | No significant change | poor solubility
